Among the data in ChEMBL document CHEMBL4428131, “Scaffold-hopping from xanthines to tricyclic guanines: A case study of dipeptidyl peptidase 4 (DPP4) inhibitors” (Bioorg Med Chem, 2016) are IC50 values, retold here.

In one assay the target is T1, Prolyl endopeptidase FAP (Homo sapiens, UniProt Q12884).
T1 sequence (Q12884 whole entry): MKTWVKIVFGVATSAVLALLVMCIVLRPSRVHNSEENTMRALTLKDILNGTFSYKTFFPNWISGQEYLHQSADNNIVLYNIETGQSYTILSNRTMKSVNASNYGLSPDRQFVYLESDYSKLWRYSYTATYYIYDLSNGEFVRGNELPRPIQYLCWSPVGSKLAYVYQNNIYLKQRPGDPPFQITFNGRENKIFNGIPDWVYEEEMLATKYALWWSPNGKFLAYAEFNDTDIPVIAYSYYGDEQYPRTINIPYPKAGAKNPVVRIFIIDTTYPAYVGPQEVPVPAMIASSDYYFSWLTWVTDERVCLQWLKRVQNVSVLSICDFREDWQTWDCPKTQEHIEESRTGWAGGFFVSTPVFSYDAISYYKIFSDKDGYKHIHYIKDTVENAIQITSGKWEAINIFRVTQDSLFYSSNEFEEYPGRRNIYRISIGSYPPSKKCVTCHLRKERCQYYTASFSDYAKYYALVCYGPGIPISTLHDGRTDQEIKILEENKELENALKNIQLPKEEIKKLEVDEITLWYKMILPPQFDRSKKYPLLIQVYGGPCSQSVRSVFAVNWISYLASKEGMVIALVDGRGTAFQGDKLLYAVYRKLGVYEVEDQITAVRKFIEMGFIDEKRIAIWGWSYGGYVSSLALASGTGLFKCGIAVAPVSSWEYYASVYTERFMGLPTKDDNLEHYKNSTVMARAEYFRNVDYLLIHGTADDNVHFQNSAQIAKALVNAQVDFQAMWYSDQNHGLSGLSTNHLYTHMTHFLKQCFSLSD
As to the kind of experiment: Inhibition of FAP (unknown origin) using Nle-Pro-AMC as substrate preincubated for 20 mins followed by substrate addition measured after 40 mins by fluorescence assay.
As usually defined, the IC50 is the concentration needed to halve the response being measured. In turn, `Cc1nc(CN2C(=O)c3c(nc(N4CCC[C@@H](N)C4)n3Cc3cc(F)ccc3F)N3CCN=C23)nc2ccccc12` returned an IC50 of 9.92 µM.

Compound `CC#CCn1c(N2CCC[C@@H](N)C2)nc2c1C(=O)N(Cc1ccccc1C#N)C1=NCCN12` displayed an IC50 of over 100 µM.

The compound `Cc1nc(CN2C(=O)c3c(nc(N4CCC[C@@H](N)C4)n3CC3CCC3)N3CCN=C23)nc2ccccc12` showed a 50% inhibitory concentration (IC50) of 3.05 µM.

Compound `Cc1nc(CN2C(=O)c3c(nc(N4CCC[C@@H](N)C4)n3Cc3ccccc3)N3CCN=C23)nc2ccccc12` displayed an IC50 of 4.64 µM.

Regarding `CC#CCn1c(N2CCC[C@@H](N)C2)nc2c1C(=O)N(Cc1ccc(C#N)cc1)C1=NCCN12`, inhibition was half-maximal at 88.3 µM (IC50).

In turn, `Cc1nc(CN2C(=O)c3c(nc(N4CCC[C@@H](N)C4)n3Cc3ccccc3C#N)N3CCN=C23)nc2ccccc12` registered an IC50 of 15.3 µM.

Compound `Cc1nc(CN2C(=O)c3c(nc(N4CCC[C@@H](N)C4)n3CC3CC3)N3CCN=C23)nc2ccccc12` displayed an IC50 of 3.12 µM. Against the preceding compound, the IC50 is about 4.9-fold lower.

As for `CC#CCn1c(N2CCC[C@@H](N)C2)nc2c1C(=O)N(Cc1ccc(OC)cc1)C1=NCCCN12`, the half-maximal inhibitory concentration (IC50) is over 50 µM.

With `CC#CCn1c(N2CCC[C@@H](N)C2)nc2c1C(=O)N(Cc1nc(C)c3ccccc3n1)C1=NCCCN12`, the half-maximal inhibitory concentration (IC50) was 0.268 µM. This counts as sub-micromolar.

Take `Cc1nc(CN2C(=O)c3c(nc(N4CCC[C@@H](N)C4)n3CC3CC3(F)F)N3CCN=C23)nc2ccccc12` (stereo partly drawn): the IC50 was 14.7 µM.

Compound `CC#CCn1c(N2CCC[C@@H](N)C2)nc2c1C(=O)N(Cc1nc(C)c3ccccc3n1)C1=NCCN12` displayed an IC50 of 0.367 µM.

In the case of `CC(C)=CCn1c(N2CCC[C@@H](N)C2)nc2c1C(=O)N(Cc1nc(C)c3ccccc3n1)C1=NCCN12`, the half-inhibitory concentration (IC50) stood at 0.755 µM.

Turning to `CC#CCn1c(N2CCC[C@@H](N)C2)nc2c1C(=O)N(Cc1cccc3ccccc13)C1=NCCCN12`, it took 22.4 µM to reach half-maximal inhibition (IC50).

Compound `Cc1nc(CN2C(=O)c3c(nc(N4CCC[C@@H](N)C4)n3CC(=O)C3CC3)N3CCN=C23)nc2ccccc12` had an IC50 of 0.107 µM.

`Cc1nc(CN2C(=O)c3c(nc(N4CCC[C@@H](N)C4)n3Cc3cccc(F)c3)N3CCN=C23)nc2ccccc12`: 4.62 µM corresponded to half-maximal inhibition (IC50). Against the preceding compound, the IC50 is about 43-fold higher.

For the compound `CC#CCn1c(N2CCC[C@@H](N)C2)nc2c1C(=O)N(Cc1cccc(C#N)c1)C1=NCCN12`, the IC50 is 78.5 µM. This IC50 is about 17-fold higher than that of the compound before.

For the next assay, the target named is Dipeptidyl peptidase 4 (Homo sapiens, UniProt P27487). As to the kind of experiment: Inhibition of DPP4 (unknown origin) using Gly-Pro-AMC as substrate preincubated for 30 mins followed by substrate addition measured after 50 mins by fluorescence assay.
Chain of Dipeptidyl peptidase 4 (P27487 whole entry): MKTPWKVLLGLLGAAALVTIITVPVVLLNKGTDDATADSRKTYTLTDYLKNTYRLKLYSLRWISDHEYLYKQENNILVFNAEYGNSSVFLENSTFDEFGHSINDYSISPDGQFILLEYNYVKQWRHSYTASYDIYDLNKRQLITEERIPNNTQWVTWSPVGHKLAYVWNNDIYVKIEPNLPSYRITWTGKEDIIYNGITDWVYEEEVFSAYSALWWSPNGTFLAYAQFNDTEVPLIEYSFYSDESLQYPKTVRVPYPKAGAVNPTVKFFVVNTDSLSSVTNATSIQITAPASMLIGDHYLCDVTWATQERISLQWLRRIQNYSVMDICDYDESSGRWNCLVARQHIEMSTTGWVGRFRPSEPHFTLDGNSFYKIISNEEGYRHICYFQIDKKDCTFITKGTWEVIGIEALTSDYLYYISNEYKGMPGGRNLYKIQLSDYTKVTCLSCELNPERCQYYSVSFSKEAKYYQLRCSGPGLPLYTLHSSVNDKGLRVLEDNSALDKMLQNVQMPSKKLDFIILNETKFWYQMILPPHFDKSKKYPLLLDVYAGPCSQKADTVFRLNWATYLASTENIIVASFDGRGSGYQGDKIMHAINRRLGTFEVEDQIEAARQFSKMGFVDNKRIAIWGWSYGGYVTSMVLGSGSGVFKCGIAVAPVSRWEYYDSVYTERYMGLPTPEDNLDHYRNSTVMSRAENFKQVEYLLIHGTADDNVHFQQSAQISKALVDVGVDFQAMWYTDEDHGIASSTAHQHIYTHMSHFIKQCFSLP
The compound `CC#CCn1c(N2CCC[C@@H](N)C2)nc2c1c(=O)nc1n2CCCN1CCCc1ccccc1` displayed an IC50 of over 10 µM.

`CC#CCn1c(N2CCC[C@@H](N)C2)nc2c1C(=O)N(CCCc1ccccc1)C1=NCCCN12` showed an IC50 of over 10 µM.
